Read-outs that look alike come from different tables or passages of the source.
Assays:
HT-29 cells = assay: Additional cytotoxicity assays, resazurin (Table 3.1); type: cell-based, human; settings: for EC50: Homo sapiens
Description: 10× concentrated serial dilutions of the two compounds were prepared in appropriate culture medium for final concentrations ranging from 2.0×10^−5 M to 2.0×10^−10 M. Ten μl volumes of the 10× serial dilutions were added to the test wells in triplicate and the plates returned to the incubator for 48 hours.
(§1) Following 48 hours of drug exposure 10 μl of 0.2 mg/ml resazurin (obtained from Sigma-Aldrich Chemical Co.) in Mg^2+, Ca^2+ free PBS was added to each well and the plates were returned to the incubator for 3-4 hours. […] Resazurin dye without cells was used to determine the background, which was subtracted from the data for all experimental wells. The data were analyzed using Prism software (GraphPad Software).
Additional cytotoxicity assays were performed as described above under this example, using Resazurin fluorescence as an indicator of cell viability.

[1] = system: HT-29 human colorectal carcinoma cells; assay: Cell growth inhibition assay, resazurin (Table 3.2); type: cell-based
Description: The cytotoxic effects of various derivatives of dehydrophenylahistin against HT-29 human colorectal carcinoma cells were determined.
HT-29 cells (ATCC; HTB-38) were maintained in ATCC recommended culture media and cultured in an incubator at 37° C. in 5% CO2 and 95% humidified air.
For cell growth inhibition assays, HT-29 cells were seeded at 5×10^3 cells/well in 90 μl complete media into a Corning 3904 black-walled, clear-bottom tissue culture plates and the plates were incubated overnight to allow cells to establish and enter log phase growth. 20 mM stock solutions of compounds were prepared in 100% DMSO and stored at −80° C. 10× concentrated serial dilutions of the compounds were prepared in culture medium for final concentrations ranging from 20 μM to […]. Ten μl volumes of the 10× serial dilutions were added to the test wells in triplicate and the plates returned to the incubator for 48 hours. The final concentration of DMSO was 0.25% in all samples.
as §1, with “exposure,” for “exposure”, “phosphate buffered saline” for “PBS”, “dye in medium” for “dye”, “wells.” for “wells. The data were analyzed using Prism software (GraphPad Software).”

HT-29 human colon cells = assay: Tumor cytotoxicity assay, resazurin fluorescence, 48 h (Example 6); type: cell-based; settings: for EC50: Homo sapiens; for cytotoxic activity against HT-29 cells / activity compared with tBu-dehydroPLH: in words
[2] = HT-29, Table 3.1, read-out: EC50 (M) Mean
[3] = HT-29, Table 3, read-out: EC50 (nM) HT-29
[4] = HT-29, Table 5, synthetic potent dehydroPLH derivatives, read-out: EC50
[5] = Table 7, electron-withdrawing group, proliferation of HT-29 cells, read-out: EC50
[6] = Table 8, electron-donating group, proliferation of HT-29 cells, read-out: EC50
[7] = Table 11, replacement with the heteroaryl ring, proliferation of HT-29 cells, read-out: EC50

## CC(C)(C)c1[nH]cnc1/C=c1\[nH]c(=O)/c(=C/c2cc(I)ccc2F)[nH]c1=O [Compound 2428, tBu-delta-PLH-2-F-5-I]
HT-29 cells; [2]
  EC50: 4.17e-08 M
HT-29 cells; Table 3.1
  % cytotox Mean: 87%

## CSc1ccccc1/C=c1\[nH]c(=O)/c(=C/c2nc[nH]c2C(C)(C)C)[nH]c1=O [Compound 2429, tBu-delta-PLH-2-(Methylthio)]
HT-29 cells; [2]
  EC50: 2.86e-08 M
HT-29 cells; Table 3.1
  % cytotox Mean: 87%

## CC(C)(C)c1[nH]cnc1/C=c1\[nH]c(=O)/c(=C/c2cccc(OC(F)(F)F)c2)[nH]c1=O [Compound 2430, tBu-delta-PLH-m-OCF3]
HT-29 cells; [2]
  EC50: 1.43e-08 M
HT-29 cells; Table 3.1
  % cytotox Mean: 87%

## COc1ccc(F)c(/C=c2\[nH]c(=O)/c(=C/c3nc[nH]c3C(C)(C)C)[nH]c2=O)c1 [Compound 2431, tBu-delta-PLH-2-F5-OMe]
HT-29 cells; [2]
  EC50: 2.03e-08 M
HT-29 cells; Table 3.1
  % cytotox Mean: 88%

## COc1cc(/C=c2\[nH]c(=O)/c(=C/c3nc[nH]c3C(C)(C)C)[nH]c2=O)ccc1F [Compound 2432, tBu-delta-PLH-4-F-3-OMe]
HT-29 cells; [2]
  EC50: 4.93e-07 M
HT-29 cells; Table 3.1
  % cytotox Mean: 85%

## CC(C)(C)c1ccc(O)c(/C=c2\[nH]c(=O)/c(=C/c3nc[nH]c3C(C)(C)C)[nH]c2=O)c1 [Compound 2433, tBu-delta-PLH-2-OH-5-tBU]
HT-29 cells; [2]
  EC50: 8.53e-06 M
HT-29 cells; Table 3.1
  % cytotox Mean: 80%

## Cc1c(F)cccc1/C=c1\[nH]c(=O)/c(=C/c2nc[nH]c2C(C)(C)C)[nH]c1=O [Compound 2435, tBu-delta-PLH-2-Me-3-F]
HT-29 cells; [2]
  EC50: 3.34e-08 M
HT-29 cells; Table 3.1
  % cytotox Mean: 86%

## Cc1ccc(F)c(/C=c2\[nH]c(=O)/c(=C/c3nc[nH]c3C(C)(C)C)[nH]c2=O)c1 [Compound 2436, tBu-delta-PLH-2-F-5-Me]
HT-29 cells; [2]
  EC50: 2.5e-08 M
HT-29 cells; Table 3.1
  % cytotox Mean: 86%

## Cc1cccc(/C=c2\[nH]c(=O)/c(=C/c3nc[nH]c3C(C)(C)C)[nH]c2=O)c1C [Compound 2439, tBu-delta-PLH-2,3-di-Me]
HT-29 cells; [2]
  EC50: 2.96e-09 M
HT-29 cells; Table 3.1
  % cytotox Mean: 87%

## COc1cccc(/C=c2\[nH]c(=O)/c(=C/c3nc[nH]c3C(C)(C)C)[nH]c2=O)c1[N+](=O)[O-] [Compound 2441, tBu-delta-PLH-2-NO2-3-OMe]
HT-29 cells; [2]
  EC50: 6.63e-07 M
HT-29 cells; Table 3.1
  % cytotox Mean: 83%

## Cc1ccc(C)c(/C=c2\[nH]c(=O)/c(=C/c3nc[nH]c3C(C)(C)C)[nH]c2=O)c1 [Compound 2442, tBu-delta-PLH-2,5-diMe]
HT-29 cells; [2]
  EC50: 8.82e-08 M
HT-29 cells; Table 3.1
  % cytotox Mean: 87%

## COc1cccc(/C=c2\[nH]c(=O)/c(=C/c3nc[nH]c3C(C)(C)C)[nH]c2=O)c1N [Compound 2455, tBu-delta-PLH-2-NH2-3-OMe]
HT-29 cells; [2]
  EC50: 3.49e-07 M
HT-29 cells; Table 3.1
  % cytotox Mean: 87%

## CC(C)(C)c1[nH]cnc1/C=c1\[nH]c(=O)/c(=C/c2ccccc2N)[nH]c1=O [Compound 2457, tBu-delta-PLH-2-NH2]
HT-29 cells; [2]
  EC50: 4.32e-07 M
HT-29 cells; Table 3.1
  % cytotox Mean: 86%

## CC(C)(C)c1[nH]cnc1/C=c1\[nH]c(=O)/c(=C/c2cccc(N)c2)[nH]c1=O [Compound 2458, tBu-delta-PLH-m-NH2]
HT-29 cells; HT-29, read-out: EC50 (M) Mean
  EC50: 3.1e-08 M
HT-29 cells; Table 3.1
  % cytotox Mean: 87%

## CC(C)(C)c1[nH]cnc1/C=c1\[nH]c(=O)/c(=C/c2sccc2B(O)O)[nH]c1=O [Compound 2459, tBu-delta-PLH-3-B(OH)2-2-thienyl]
HT-29 cells; [2]
  EC50: 2.53e-08 M
HT-29 cells; Table 3.1
  % cytotox Mean: 88%

## CC(C)(C)c1[nH]cnc1/C=c1\[nH]c(=O)/c(=C/c2cc(Cl)ccc2N)[nH]c1=O [Compound 2461, tBu-delta-PLH-5-Cl-2-NH2]
[1]; Table 3.2, HT-29 cells, read-out: EC50 (M) Mean
  EC50: 2.95e-07 M

## COc1cccc(/C=c2\[nH]c(=O)/c(=C/c3ncoc3C(C)(C)C)[nH]c2=O)c1 [Compound 2462, tBu-Oxadelta-PLH-m-OMe]
[1]; HT-29, read-out: EC50 (M) Mean
  EC50: 5.41e-08 M

## COc1cc(/C=c2\[nH]c(=O)/c(=C/c3nc[nH]c3C(C)(C)C)[nH]c2=O)cc(OC)c1 [KPU-16, tBu-ΔPLH-3,5-diOMe]
HT-29 human colon cells; [3]
  EC50: 42 nM
HT-29 human colon cells; [4]
  EC50: 42 nM
HT-29 human colon cells
  cytotoxic activity against HT-29 cells: showed high activity

## CC(C)(C)c1[nH]cnc1/C=c1\[nH]c(=O)/c(=C/c2cc([N+](=O)[O-])ccc2Cl)[nH]c1=O [KPU-21, tBu-ΔPLH-2Cl-5-NO2]
HT-29 human colon cells; [3]
  EC50: 51 nM
HT-29 human colon cells; [5]
  EC50: 51 nM

## CC(C)(C)c1[nH]cnc1/C=c1\[nH]c(=O)/c(=C/c2ccc3c(c2)OCO3)[nH]c1=O [KPU-22, tBu-ΔPLH-3,4-methylene-dioxy]
HT-29 human colon cells; [3]
  EC50: 82 nM
HT-29 human colon cells; [6]
  EC50: 82 nM

## COc1cccc(/C=c2\[nH]c(=O)/c(=C/c3nc[nH]c3C(C)(C)C)[nH]c2=O)c1O [KPU-23, tBu-ΔPLH-2-OH-3-OMe (o-vanillin)]
HT-29 human colon cells; [3]
  EC50: 5870 nM
HT-29 human colon cells; [6]
  EC50: 5870 nM

## COc1cccc2cc3c(=O)[nH]/c(=C\c4nc[nH]c4C(C)(C)C)c(=O)n3c12 [KPU-24, tBu-ΔPLH-cyclized-3-MeO]
HT-29 human colon cells; [3]
  EC50: 7040 nM
HT-29 human colon cells; Table 6, proliferation of HT-29 cells, read-out: EC50
  EC50: 7040 nM

## Cc1ccc(/C=c2\[nH]c(=O)/c(=C/c3nc[nH]c3C(C)(C)C)[nH]c2=O)s1 [KPU-27, tBu-ΔPLH-5-Me-2-thienyl]
HT-29 human colon cells; [3]
  EC50: 80 nM
HT-29 human colon cells; [7]
  EC50: 80 nM

## Cc1ccsc1/C=c1\[nH]c(=O)/c(=C/c2nc[nH]c2C(C)(C)C)[nH]c1=O [KPU-29, tBu-ΔPLH-3-Me-2-thienyl]
HT-29 human colon cells; [3]
  EC50: 44 nM
HT-29 human colon cells; [4]
  EC50: 44 nM
HT-29 human colon cells
  cytotoxic activity against HT-29 cells: exhibited activity

## CC(C)(C)c1[nH]cnc1/C=c1\[nH]c(=O)/c(=C/c2cccc3c2OCO3)[nH]c1=O [KPU-30, tBu-ΔPLH-2,3-methylendioxy]
HT-29 human colon cells; [6]
  EC50: 477 nM

## Cc1cccc(/C=c2\[nH]c(=O)/c(=C/c3nc[nH]c3C(C)(C)C)[nH]c2=O)n1 [KPU-33, tBu-ΔPLH-3-Me-2-pyridyl]
HT-29 human colon cells; [7]
  EC50: > 20000 nM

## Cc1[nH]cnc1/C=c1\[nH]c(=O)/c(=C/c2nc[nH]c2C(C)(C)C)[nH]c1=O [KPU-36, tBu-ΔPLH-5-Me-4-im]
HT-29 human colon cells; [7]
  EC50: 2790 nM

## CC(C)(C)c1[nH]cnc1/C=c1\[nH]c(=O)/c(=C/c2ccc(C#N)cc2)[nH]c1=O [KPU-43, tBu-ΔPLH-p-CN]
HT-29 human colon cells; [5]
  EC50: > 20000 nM

## COc1cc(OC)c(/C=c2\[nH]c(=O)/c(=C/c3nc[nH]c3C(C)(C)C)[nH]c2=O)c(OC)c1 [KPU-45, tBu-ΔPLH-2,4,6-TriOMe]
HT-29 human colon cells
  cytotoxic activity against HT-29 cells: also showed activity

## CC(C)(C)c1[nH]cnc1/C=c1\[nH]c(=O)/c(=C/c2cc(Cl)ccc2[N+](=O)[O-])[nH]c1=O [KPU-52, tBu-ΔPLH-2-NO2-5-Cl]
HT-29 human colon cells; [5]
  EC50: 110 nM

## COc1ccc(O)c(/C=c2\[nH]c(=O)/c(=C/c3nc[nH]c3C(C)(C)C)[nH]c2=O)c1 [KPU-54, tBu-ΔPLH-2-OH-5-OMe]
HT-29 human colon cells; [6]
  EC50: > 20000 nM

## COc1ccc(/C=c2\[nH]c(=O)/c(=C/c3nc[nH]c3C(C)(C)C)[nH]c2=O)cc1O [KPU-57, tBu-delta-PLH-3-OH-4-OMe]
HT-29 human colon cells; [6]
  EC50: > 20000 nM

## COc1ccc(/C=c2\[nH]c(=O)/c(=C/c3nc[nH]c3C(C)(C)C)[nH]c2=O)c(O)c1 [KPU-58, tBu-ΔPLH-2-OH-4-OMe]
HT-29 human colon cells; [6]
  EC50: > 20000 nM

## CC(C)(C)c1[nH]cnc1/C=c1\[nH]c(=O)/c(=C/c2ccc(Cl)s2)[nH]c1=O [KPU-61, tBu-ΔPLH-5-Cl-2-thionyl]
HT-29 human colon cells; HT-29, Table 11, replacement with the heteroaryl ring, proliferation of HT-29 cells
  EC50: 184 nM

## Cn1cccc1/C=c1\[nH]c(=O)/c(=C/c2nc[nH]c2C(C)(C)C)[nH]c1=O [KPU-63, tBu-ΔPLH-N-Me-2-pyrrole]
HT-29 human colon cells; [7]
  EC50: 105 nM

## CC(C)(C)c1[nH]cnc1/C=c1\[nH]c(=O)/c(=C/c2cccc(OC(F)(F)F)c2)[nH]c1=O [KPU-80, TBu-ΔPLH-m-OCF3]
HT-29 human colon cells; [4]
  EC50: 13 nM
HT-29 human colon cells
  activity compared with tBu-dehydroPLH: higher activity than tBu-dehydroPLH

## COc1ccc(F)c(/C=c2\[nH]c(=O)/c(=C/c3nc[nH]c3C(C)(C)C)[nH]c2=O)c1 [KPU-81, TBu-ΔPLH-2-F-5-OMe]
HT-29 human colon cells; [4]
  EC50: 19 nM
HT-29 human colon cells
  activity compared with tBu-dehydroPLH: higher activity than tBu-dehydroPLH

## Cc1cccc(/C=c2\[nH]c(=O)/c(=C/c3nc[nH]c3C(C)(C)C)[nH]c2=O)c1C [KPU-90, 3-{(Z)-1-[5-(tert-Butyl)-1H-4-imidazolyl]methylidene}-6-[(Z)-1-(2,3-dimethylphenyl)methylidene]-2,5-piperazinedione]
HT-29 human colon cells
  potency relative to dehydroPLH: 16 times
  potency relative to tBu-dehydroPLH: 4 times
HT-29 human colon cells; [4]
  EC50: 3 nM
HT-29 human colon cells; HT-29, text to Table 5, most potent compound, read-out: EC50 value
  EC50: 3 nM

## CC(C)(C)c1[nH]cnc1/C=c1\[nH]c(=O)/c(=C/c2ccccc2)[nH]c1=O [tBu-dehydrophenylahistin, 3-Z-Benzylidene-6-(5″-tert-butyl-1H-imidazol-4″-Z-ylmethylene)-piperazine-2,5-dione]
HT-29 human colon cells; Table 1 text
  greater cytotoxic activity in comparison with dehydrophenylahistin: ~4 times

Source: patent US8129527B2, “Analogs of dehydrophenylahistins and their therapeutic use” (Nereus Pharmacuticals, Inc., priority 2006, dated 2012)
